According to PubChem BioAssay (NCI):
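All cell lines were grown in 96-well plates and treated with compound for 48 hours. The concentration for full growth arrest is given as TGI.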

Tests used:
Assay in all cases: NCI anticancer screen, dose series, 48 h
NCI/ADR-RES ovarian = tested on: NCI/ADR-RES ovarian
HCT-15 colon = tested on: HCT-15 colon
SN12C renal = tested on: SN12C renal
HCC-2998 colon = tested on: HCC-2998 colon
RPMI-8226 leukemia = tested on: RPMI-8226 leukemia
HOP-62 NSCLC = tested on: HOP-62 NSCLC
NCI-H460 lung = tested on: NCI-H460 lung
UO-31 renal = tested on: UO-31 renal
IGROV1 ovarian = tested on: IGROV1 ovarian
SR leukemia = tested on: SR leukemia
PC-3 prostate = tested on: PC-3 prostate
SF-539 CNS = tested on: SF-539 CNS
EKVX NSCLC = tested on: EKVX NSCLC
SF-268 CNS = tested on: SF-268 CNS
T-47D breast = tested on: T-47D breast
OVCAR-3 ovarian = tested on: OVCAR-3 ovarian
K-562 leukemia = tested on: K-562 leukemia
SK-OV-3 ovarian = tested on: SK-OV-3 ovarian
SNB-75 CNS = tested on: SNB-75 CNS
ACHN renal = tested on: ACHN renal
MOLT-4 leukemia = tested on: MOLT-4 leukemia
SK-MEL-28 melanoma = tested on: SK-MEL-28 melanoma
U251 CNS = tested on: U251 CNS
UACC-257 melanoma = tested on: UACC-257 melanoma
NCI-H522 lung = tested on: NCI-H522 lung
MDA-N = tested on: MDA-N
HT29 colon = tested on: HT29 colon
OVCAR-8 ovarian = tested on: OVCAR-8 ovarian
NCI-H226 lung = tested on: NCI-H226 lung
M14 melanoma = tested on: M14 melanoma
SNB-19 CNS = tested on: SNB-19 CNS
MDA-MB-231 breast = tested on: MDA-MB-231 breast
MCF7 breast = tested on: MCF7 breast
MDA-MB-435 = tested on: MDA-MB-435
TK-10 renal = tested on: TK-10 renal
HL-60(TB) leukemia = tested on: HL-60(TB) leukemia
CCRF-CEM leukemia = tested on: CCRF-CEM leukemia
CAKI-1 renal = tested on: CAKI-1 renal
OVCAR-5 ovarian = tested on: OVCAR-5 ovarian
NCI-H23 lung = tested on: NCI-H23 lung
UACC-62 melanoma = tested on: UACC-62 melanoma
MALME-3M melanoma = tested on: MALME-3M melanoma
SK-MEL-2 melanoma = tested on: SK-MEL-2 melanoma
DU-145 prostate = tested on: DU-145 prostate
SK-MEL-5 melanoma = tested on: SK-MEL-5 melanoma
KM12 colon = tested on: KM12 colon
SW-620 colon = tested on: SW-620 colon
LOX IMVI melanoma = tested on: LOX IMVI melanoma
786-0 renal = tested on: 786-0 renal
OVCAR-4 ovarian = tested on: OVCAR-4 ovarian
HCT-116 colon = tested on: HCT-116 colon
A498 renal = tested on: A498 renal
COLO 205 colon = tested on: COLO 205 colon
RXF 393 renal = tested on: RXF 393 renal
HOP-92 NSCLC = tested on: HOP-92 NSCLC
SF-295 CNS = tested on: SF-295 CNS
A549 NSCLC = tested on: A549 NSCLC

For `COc1ccc2cc(C(=O)Nc3ccc(O)c(C(=O)O)c3)ccc2c1OC`, the TGI (NCI/ADR-RES ovarian) was > 100 µM, the TGI (HCT-15 colon) was > 100 µM and the TGI (SN12C renal) was > 100 µM. The TGI (HCC-2998 colon) was > 100 µM, the TGI (RPMI-8226 leukemia) was > 100 µM and the TGI (HOP-62 NSCLC) was > 100 µM. The TGI (NCI-H460 lung) was > 100 µM, the TGI (UO-31 renal) was > 100 µM and the TGI (IGROV1 ovarian) was > 100 µM. For the same compound, the TGI (SR leukemia) was > 100 µM, the TGI (PC-3 prostate) was > 100 µM and the TGI (SF-539 CNS) was > 100 µM. The TGI (EKVX NSCLC) was > 100 µM, the TGI (SF-268 CNS) was > 100 µM and the TGI (T-47D breast) was > 100 µM. For the same compound, the TGI (OVCAR-3 ovarian) was > 100 µM, the TGI (K-562 leukemia) was > 100 µM and the TGI (SK-OV-3 ovarian) was > 100 µM. For the same compound, the TGI (SNB-75 CNS) was > 100 µM, the TGI (ACHN renal) was > 100 µM and the TGI (MOLT-4 leukemia) was > 100 µM. The TGI (SK-MEL-28 melanoma) was > 100 µM, the TGI (U251 CNS) was > 100 µM and the TGI (UACC-257 melanoma) was > 100 µM. For the same compound, the TGI (NCI-H522 lung) was > 100 µM, the TGI (MDA-N) was > 100 µM and the TGI (HT29 colon) was > 100 µM. For the same compound, the TGI (OVCAR-8 ovarian) was > 100 µM, the TGI (NCI-H226 lung) was > 100 µM and the TGI (M14 melanoma) was > 100 µM. For the same compound, the TGI (SNB-19 CNS) was > 100 µM, the TGI (MDA-MB-231 breast) was > 100 µM and the TGI (MCF7 breast) was > 100 µM. For the same compound, the TGI (MDA-MB-435) was > 100 µM, the TGI (TK-10 renal) was > 100 µM and the TGI (HL-60(TB) leukemia) was > 100 µM. For the same compound, the TGI (CCRF-CEM leukemia) was > 100 µM, the TGI (CAKI-1 renal) was > 100 µM and the TGI (OVCAR-5 ovarian) was > 100 µM. For the same compound, the TGI (NCI-H23 lung) was > 100 µM, the TGI (UACC-62 melanoma) was > 100 µM and the TGI (MALME-3M melanoma) was > 100 µM. For the same compound, the TGI (SK-MEL-2 melanoma) was > 100 µM, the TGI (DU-145 prostate) was > 100 µM and the TGI (SK-MEL-5 melanoma) was > 100 µM. The TGI (KM12 colon) was > 100 µM, the TGI (SW-620 colon) was > 100 µM and the TGI (LOX IMVI melanoma) was > 100 µM. The TGI (786-0 renal) was > 100 µM, the TGI (OVCAR-4 ovarian) was > 100 µM and the TGI (HCT-116 colon) was > 100 µM.

For `O=C1C(=O)c2c(O)ccc(O)c2C(O)=C1Cl`, the TGI (NCI/ADR-RES ovarian) was > 100 µM, the TGI (HCT-15 colon) was > 100 µM and the TGI (A498 renal) was > 100 µM. The TGI (COLO 205 colon) was > 100 µM, the TGI (HCC-2998 colon) was > 100 µM and the TGI (RPMI-8226 leukemia) was > 100 µM. The TGI (HOP-62 NSCLC) was > 100 µM, the TGI (NCI-H460 lung) was > 100 µM and the TGI (UO-31 renal) was > 100 µM. For the same compound, the TGI (IGROV1 ovarian) was > 100 µM, the TGI (SR leukemia) was > 100 µM and the TGI (PC-3 prostate) was > 100 µM. The TGI (SF-539 CNS) was > 100 µM, the TGI (EKVX NSCLC) was > 100 µM and the TGI (SF-268 CNS) was > 100 µM. The TGI (T-47D breast) was > 100 µM, the TGI (RXF 393 renal) was > 100 µM and the TGI (OVCAR-3 ovarian) was > 100 µM. For the same compound, the TGI (HOP-92 NSCLC) was > 100 µM, the TGI (K-562 leukemia) was > 100 µM and the TGI (SNB-75 CNS) was > 100 µM. For the same compound, the TGI (SK-MEL-28 melanoma) was > 100 µM, the TGI (U251 CNS) was > 100 µM and the TGI (UACC-257 melanoma) was > 100 µM. The TGI (MDA-N) was > 100 µM, the TGI (HT29 colon) was > 100 µM and the TGI (OVCAR-8 ovarian) was > 100 µM. For the same compound, the TGI (M14 melanoma) was > 100 µM, the TGI (SNB-19 CNS) was > 100 µM and the TGI (MDA-MB-231 breast) was > 100 µM. For the same compound, the TGI (MCF7 breast) was > 100 µM, the TGI (TK-10 renal) was > 100 µM and the TGI (HL-60(TB) leukemia) was > 100 µM. The TGI (CCRF-CEM leukemia) was > 100 µM, the TGI (SF-295 CNS) was > 100 µM and the TGI (CAKI-1 renal) was > 100 µM. The TGI (OVCAR-5 ovarian) was > 100 µM, the TGI (NCI-H23 lung) was > 100 µM and the TGI (UACC-62 melanoma) was > 100 µM. The TGI (MALME-3M melanoma) was 78.3 µM, the TGI (DU-145 prostate) was > 100 µM and the TGI (SK-MEL-5 melanoma) was > 100 µM. The TGI (KM12 colon) was > 100 µM, the TGI (SW-620 colon) was > 100 µM and the TGI (786-0 renal) was > 100 µM. For the same compound, the TGI (A549 NSCLC) was > 100 µM, the TGI (OVCAR-4 ovarian) was > 100 µM and the TGI (HCT-116 colon) was > 100 µM.
